Results reported in ChEMBL document CHEMBL2412998, “Search for a novel SIRT1 activator: structural modification of SRT1720 and biological evaluation” (Bioorg Med Chem Lett, 2013).
Active and inactive are the calls of the source. The rule behind the calls is not given here.

Experiments:
[1] = target: T1, NAD-dependent protein deacetylase sirtuin-1 (Homo sapiens) (UniProt Q96EB6); test: Activation of human recombinant SIRT1 at 10 uM preincubated for 60 mins prior to substrate addition measured after 60 mins by fluorescence assay
T1 sequence (whole entry): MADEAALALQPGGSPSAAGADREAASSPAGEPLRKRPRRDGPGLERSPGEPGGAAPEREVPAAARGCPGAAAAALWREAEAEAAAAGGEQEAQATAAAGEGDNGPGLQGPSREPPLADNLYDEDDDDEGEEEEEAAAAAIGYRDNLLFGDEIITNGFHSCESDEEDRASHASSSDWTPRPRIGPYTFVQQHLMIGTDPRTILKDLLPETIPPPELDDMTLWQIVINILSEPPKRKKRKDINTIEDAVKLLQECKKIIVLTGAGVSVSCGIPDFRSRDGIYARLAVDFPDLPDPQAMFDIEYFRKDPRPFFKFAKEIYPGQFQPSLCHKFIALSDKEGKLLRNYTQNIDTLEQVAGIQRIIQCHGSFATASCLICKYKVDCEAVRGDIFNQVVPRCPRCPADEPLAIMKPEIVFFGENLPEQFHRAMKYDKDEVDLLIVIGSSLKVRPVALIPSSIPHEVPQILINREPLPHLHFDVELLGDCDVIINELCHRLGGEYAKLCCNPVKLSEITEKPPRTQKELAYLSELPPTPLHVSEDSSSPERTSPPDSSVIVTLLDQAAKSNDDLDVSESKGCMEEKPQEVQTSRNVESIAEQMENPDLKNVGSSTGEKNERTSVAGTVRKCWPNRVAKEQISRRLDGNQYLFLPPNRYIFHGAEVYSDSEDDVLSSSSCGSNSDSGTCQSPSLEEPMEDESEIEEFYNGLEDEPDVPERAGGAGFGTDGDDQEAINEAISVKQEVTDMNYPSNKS

[2] = target: T1, NAD-dependent protein deacetylase sirtuin-1 (Homo sapiens); test: Activation of human recombinant SIRT1 at 100 uM preincubated for 60 mins prior to substrate addition measured after 60 mins by fluorescence assay

Question: With `O=C(Nc1ccccc1-c1cn2c(CN3CCNCC3)csc2n1)c1cccc2ccccc12` as the compound, how does the Activity [1] read?
Answer: Its Activity is “inactive”.

Question: Which Activity [2] does the source give for `O=C(Nc1cccc(-c2cn3c(CN4CCNCC4)csc3n2)c1)c1cnc2ccccc2n1` here?
Answer: The Activity was “Active”.

Question: And the Activity [1]?
Answer: The Activity was “Active”.

Question: For `O=C(Nc1ccccc1-c1cn2c(CN3CCNCC3)csc2n1)c1cnc2ccccc2n1`, which Activity [2] is on record?
Answer: Its Activity is “Active”.

Question: And the Activity [1]?
Answer: The Activity was 160%.

Question: Which Activity [1] does the source give for `O=C(Nc1ccc(-c2cn3c(CN4CCNCC4)csc3n2)cc1)c1cnc2ccccc2n1` here?
Answer: Its Activity is “inactive”.

Question: For `COCc1csc2nc(-c3ccccc3NC(=O)c3cnc4ccccc4n3)cn12`, which Activity [1] is on record?
Answer: The Activity was “inactive”.

Question: How did the Activity [1] turn out when `COCCOCOCc1csc2nc(-c3ccccc3NC(=O)c3cnc4ccccc4n3)cn12` was run?
Answer: The Activity was “inactive”.

Question: Which Activity [1] does the source give for `O=C(Nc1cccc(-c2cn3c(CN4CCCC4)csc3n2)c1)c1cnc2ccccc2n1` here?
Answer: The Activity was “inactive”.

Question: With `O=C(Nc1cccc(-c2cn3c(CN4CCNCC4)csc3n2)c1)c1cnc2ccccc2c1` as the compound, how does the Activity [2] read?
Answer: Its Activity is “Active”.

Question: What about the Activity [1] of the same compound?
Answer: Its Activity is 140%.

Question: For `O=C(Nc1cccc(-c2cn3c(CN4CCNCC4)csc3n2)c1)c1cnccn1`, which Activity [1] is on record?
Answer: Its Activity is “inactive”.

Question: Which Activity [1] does the source give for `O=C(Nc1ccccc1-c1cn2c(CN3CCNCC3)csc2n1)c1ccnc2ccccc12` here?
Answer: The Activity was “inactive”.

Question: `O=C(Nc1cccc(-c2cn3c(CN4CCOCC4)csc3n2)c1)c1cnc2ccccc2n1` was tested. Which Activity [1] did it give?
Answer: The Activity was “inactive”.

Question: With `O=C(Nc1ccccc1-c1cn2c(CN3CCNCC3)csc2n1)c1ccc2ccccc2c1` as the compound, how does the Activity [1] read?
Answer: The Activity was “inactive”.

Question: For `O=C(Nc1cccc(-c2cn3c(CN4CCNCC4)csc3n2)c1)c1ccnc2ccccc12`, which Activity [1] is on record?
Answer: Its Activity is “inactive”.

Question: How did the Activity [1] turn out when `O=C(Nc1cccc(-c2cn3c(CN4CCNCC4)csc3n2)c1)c1cc2ccccc2[nH]1` was run?
Answer: The Activity was “inactive”.

Question: `O=C(Nc1cccc(-c2cn3c(CN4CCCCC4)csc3n2)c1)c1cnc2ccccc2n1` was tested. Which Activity [1] did it give?
Answer: Its Activity is “inactive”.

Question: How did the Activity [2] turn out when `O=C(Nc1cccc(-c2cn3c(CN4CCNCC4)csc3n2)c1)c1ccc2ccccc2n1` was run?
Answer: Its Activity is “Active”.

Question: And the Activity [1]?
Answer: Its Activity is 140%.

Question: `CNCc1csc2nc(-c3ccccc3NC(=O)c3cnc4ccccc4n3)cn12` was tested. Which Activity [1] did it give?
Answer: Its Activity is “inactive”.
